# Measured values from patent EP4722207A1, “OXOISOINDOLINYL-SUBSTITUTED TETRAHYDROPYRIMIDINEDIONE DERIVATIVE AND USE THEREOF” (Gluetacs Therapeutics (Shanghai) Co., Ltd., priority 2023, dated 2024).
# Key:
# GSPT1 = target: T1, GSPT1 (Homo sapiens, UniProt P15170+Q96SW2); test: Western-blot assay, substrate protein degradation in hPBMCs: GSPT1; type: cell-based; conditions: for GSPT1 substrate protein remaining %: compounds at 50 nM and 500 nM, 24 hours
# T1 construct: effects of the compounds of the present disclosure on the expression of target proteins in cells; endogenous in cells; host or cells: human PBMCs (hPBMCs)
# WEE1 = target: T2, WEE1 (Homo sapiens, UniProt P30291+Q96SW2); test: Western-blot assay, substrate protein degradation in hPBMCs: WEE1; type: cell-based; conditions: for WEE1 substrate protein remaining %: compounds at 50 nM and 500 nM, 24 hours
# T2 construct: effects of the compounds of the present disclosure on the expression of target proteins in cells; endogenous in cells; host or cells: human PBMCs (hPBMCs)
# MM.1S = test: Cell viability assay (CellTiter-Meiluncell Luminescent), tumor cell proliferation, MM.1S; conditions: Homo sapiens, MM1.S, 96 h, read-out: inhibitory activity (IC50, nM) against tumor cells proliferation, MM.1S
# IKZF3 = target: T3, IKZF3 (Homo sapiens, UniProt Q96SW2+Q9UKT9); test: Western-blot assay, substrate protein degradation in hPBMCs: IKZF3; type: cell-based; conditions: for IKZF3 substrate protein remaining %: compounds at 50 nM and 500 nM, 24 hours
# T3 construct: effects of the compounds of the present disclosure on the expression of target proteins in cells; endogenous in cells; host or cells: human PBMCs (hPBMCs)
# IKZF1 = target: T4, IKZF1 (Homo sapiens, UniProt Q13422+Q96SW2); test: Western-blot assay, substrate protein degradation in hPBMCs: IKZF1; type: cell-based; conditions: for IKZF1 substrate protein remaining %: compounds at 50 nM and 500 nM, 24 hours
# T4 construct: effects of the compounds of the present disclosure on the expression of target proteins in cells; endogenous in cells; host or cells: human PBMCs (hPBMCs)
# IKZF2 = target: T5, IKZF2 (Homo sapiens, UniProt Q96SW2+Q9UKS7); test: Western-blot assay, substrate protein degradation in hPBMCs: IKZF2; type: cell-based; conditions: for IKZF2 substrate protein remaining %: compounds at 50 nM and 500 nM, 24 hours
# T5 construct: effects of the compounds of the present disclosure on the expression of target proteins in cells; endogenous in cells; host or cells: human PBMCs (hPBMCs)
# CK1α = target: T6, CK1α (Homo sapiens, UniProt P48729+Q96SW2); test: Western-blot assay, substrate protein degradation in hPBMCs: CK1α; type: cell-based; conditions: for CK1α substrate protein remaining %: compounds at 50 nM and 500 nM, 24 hours
# T6 construct: effects of the compounds of the present disclosure on the expression of target proteins in cells; endogenous in cells; host or cells: human PBMCs (hPBMCs)
# [1] = 24 hours of compound treatment, 50 nM and 500 nM
# T2 sequence (P30291 whole entry): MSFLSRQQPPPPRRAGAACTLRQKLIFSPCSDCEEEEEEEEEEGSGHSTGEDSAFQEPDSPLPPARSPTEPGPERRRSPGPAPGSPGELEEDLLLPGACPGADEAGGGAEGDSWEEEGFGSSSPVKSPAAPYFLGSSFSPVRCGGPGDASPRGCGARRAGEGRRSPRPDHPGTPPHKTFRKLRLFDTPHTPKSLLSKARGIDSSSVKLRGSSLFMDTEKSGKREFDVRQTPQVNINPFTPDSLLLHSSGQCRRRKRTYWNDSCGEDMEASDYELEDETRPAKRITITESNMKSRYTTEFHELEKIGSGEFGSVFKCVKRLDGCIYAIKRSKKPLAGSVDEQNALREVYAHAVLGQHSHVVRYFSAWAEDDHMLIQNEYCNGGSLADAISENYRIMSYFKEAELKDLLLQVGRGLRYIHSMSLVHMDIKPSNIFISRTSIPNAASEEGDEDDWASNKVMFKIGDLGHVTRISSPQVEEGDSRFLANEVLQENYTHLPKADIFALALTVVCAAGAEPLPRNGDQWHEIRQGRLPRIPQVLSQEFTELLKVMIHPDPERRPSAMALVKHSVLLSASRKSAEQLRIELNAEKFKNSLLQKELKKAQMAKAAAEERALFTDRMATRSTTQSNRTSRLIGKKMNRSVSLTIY
# T2 sequence (Q96SW2 whole entry): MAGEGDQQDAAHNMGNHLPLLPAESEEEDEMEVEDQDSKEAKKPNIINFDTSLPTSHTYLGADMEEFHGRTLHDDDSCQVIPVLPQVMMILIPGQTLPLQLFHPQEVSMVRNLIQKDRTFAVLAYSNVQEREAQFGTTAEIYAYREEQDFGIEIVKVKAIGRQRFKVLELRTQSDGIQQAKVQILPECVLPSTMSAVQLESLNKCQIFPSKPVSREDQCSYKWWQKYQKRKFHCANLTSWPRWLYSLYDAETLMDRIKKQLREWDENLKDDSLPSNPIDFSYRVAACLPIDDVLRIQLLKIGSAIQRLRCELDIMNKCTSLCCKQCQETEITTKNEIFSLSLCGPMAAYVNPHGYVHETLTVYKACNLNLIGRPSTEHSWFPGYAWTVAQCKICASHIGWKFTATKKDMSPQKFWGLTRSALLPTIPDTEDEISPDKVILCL
# T2 sequence (Q16531 whole entry partner): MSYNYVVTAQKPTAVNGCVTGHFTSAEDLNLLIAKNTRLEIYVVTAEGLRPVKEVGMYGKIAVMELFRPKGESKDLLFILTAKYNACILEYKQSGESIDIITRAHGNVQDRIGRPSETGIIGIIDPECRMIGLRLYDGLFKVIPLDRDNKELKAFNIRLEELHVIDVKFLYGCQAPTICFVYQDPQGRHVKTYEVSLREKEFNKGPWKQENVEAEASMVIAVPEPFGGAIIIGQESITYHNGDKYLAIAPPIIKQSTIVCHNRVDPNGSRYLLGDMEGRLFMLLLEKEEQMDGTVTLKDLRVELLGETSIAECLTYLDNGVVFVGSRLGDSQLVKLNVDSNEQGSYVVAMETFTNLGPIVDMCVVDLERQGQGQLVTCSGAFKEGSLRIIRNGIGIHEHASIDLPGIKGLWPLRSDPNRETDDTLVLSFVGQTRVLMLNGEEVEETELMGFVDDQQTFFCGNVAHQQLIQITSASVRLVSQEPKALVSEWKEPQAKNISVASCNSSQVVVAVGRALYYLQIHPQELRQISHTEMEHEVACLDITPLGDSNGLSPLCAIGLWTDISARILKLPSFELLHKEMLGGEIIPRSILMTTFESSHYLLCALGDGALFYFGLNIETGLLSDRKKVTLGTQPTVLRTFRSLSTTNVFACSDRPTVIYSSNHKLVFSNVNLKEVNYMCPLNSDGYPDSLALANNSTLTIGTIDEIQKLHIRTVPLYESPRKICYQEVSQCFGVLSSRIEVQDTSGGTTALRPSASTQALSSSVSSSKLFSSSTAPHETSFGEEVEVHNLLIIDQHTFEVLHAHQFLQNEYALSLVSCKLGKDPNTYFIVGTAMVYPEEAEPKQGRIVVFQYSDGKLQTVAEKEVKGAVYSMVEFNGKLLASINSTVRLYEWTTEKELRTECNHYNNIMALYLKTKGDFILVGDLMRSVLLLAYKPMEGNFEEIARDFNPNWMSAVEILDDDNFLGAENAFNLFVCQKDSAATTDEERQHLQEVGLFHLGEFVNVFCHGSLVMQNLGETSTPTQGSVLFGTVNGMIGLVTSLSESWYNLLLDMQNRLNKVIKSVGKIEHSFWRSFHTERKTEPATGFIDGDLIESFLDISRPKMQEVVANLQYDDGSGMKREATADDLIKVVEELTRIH
# T6 sequence (P48729 whole entry): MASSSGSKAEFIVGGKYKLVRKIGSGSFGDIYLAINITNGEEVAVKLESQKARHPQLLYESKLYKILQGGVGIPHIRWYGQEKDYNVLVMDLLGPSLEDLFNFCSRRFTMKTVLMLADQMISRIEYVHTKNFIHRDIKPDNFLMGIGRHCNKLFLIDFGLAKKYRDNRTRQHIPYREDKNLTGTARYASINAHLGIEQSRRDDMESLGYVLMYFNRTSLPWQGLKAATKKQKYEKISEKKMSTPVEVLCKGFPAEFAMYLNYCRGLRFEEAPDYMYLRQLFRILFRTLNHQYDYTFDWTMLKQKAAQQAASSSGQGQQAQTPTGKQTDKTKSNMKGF
# T6 sequence (Q96SW2 whole entry): as the sequence (Q96SW2 whole entry) above
# T6 sequence (Q16531 whole entry partner): as the sequence (Q16531 whole entry partner) above
# T1 sequence (P15170 whole entry): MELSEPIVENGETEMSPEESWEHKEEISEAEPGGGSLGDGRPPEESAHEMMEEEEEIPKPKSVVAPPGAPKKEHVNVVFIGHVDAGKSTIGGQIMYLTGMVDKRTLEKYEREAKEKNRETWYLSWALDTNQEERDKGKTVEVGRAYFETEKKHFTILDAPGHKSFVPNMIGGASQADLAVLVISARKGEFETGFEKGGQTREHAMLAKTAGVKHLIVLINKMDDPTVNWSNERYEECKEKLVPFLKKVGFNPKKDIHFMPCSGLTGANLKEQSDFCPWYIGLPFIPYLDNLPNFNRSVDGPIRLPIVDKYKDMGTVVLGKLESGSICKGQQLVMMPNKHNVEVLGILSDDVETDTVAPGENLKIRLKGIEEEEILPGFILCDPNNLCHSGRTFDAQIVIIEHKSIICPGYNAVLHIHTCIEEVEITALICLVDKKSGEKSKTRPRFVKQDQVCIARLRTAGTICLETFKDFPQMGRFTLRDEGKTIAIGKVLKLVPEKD
# T1 sequence (Q96SW2 whole entry): as the sequence (Q96SW2 whole entry) above
# T1 sequence (Q16531 whole entry partner): as the sequence (Q16531 whole entry partner) above
# T4 sequence (Q13422 whole entry): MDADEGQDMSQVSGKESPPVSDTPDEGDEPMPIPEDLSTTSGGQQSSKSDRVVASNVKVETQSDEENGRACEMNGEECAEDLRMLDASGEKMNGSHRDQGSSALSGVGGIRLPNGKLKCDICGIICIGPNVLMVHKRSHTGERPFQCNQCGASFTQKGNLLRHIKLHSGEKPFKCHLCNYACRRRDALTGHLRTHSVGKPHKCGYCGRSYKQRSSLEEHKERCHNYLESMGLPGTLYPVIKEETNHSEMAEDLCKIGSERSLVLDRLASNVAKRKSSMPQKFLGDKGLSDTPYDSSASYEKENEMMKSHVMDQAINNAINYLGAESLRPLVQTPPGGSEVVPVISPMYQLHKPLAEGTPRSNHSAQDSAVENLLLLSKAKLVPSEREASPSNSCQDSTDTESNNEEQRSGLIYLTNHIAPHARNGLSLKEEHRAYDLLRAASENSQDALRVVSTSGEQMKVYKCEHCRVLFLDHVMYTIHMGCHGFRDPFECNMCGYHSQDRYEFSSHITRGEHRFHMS
# T4 sequence (Q96SW2 whole entry): as the sequence (Q96SW2 whole entry) above
# T4 sequence (Q16531 whole entry partner): as the sequence (Q16531 whole entry partner) above
# T5 sequence (Q9UKS7 whole entry): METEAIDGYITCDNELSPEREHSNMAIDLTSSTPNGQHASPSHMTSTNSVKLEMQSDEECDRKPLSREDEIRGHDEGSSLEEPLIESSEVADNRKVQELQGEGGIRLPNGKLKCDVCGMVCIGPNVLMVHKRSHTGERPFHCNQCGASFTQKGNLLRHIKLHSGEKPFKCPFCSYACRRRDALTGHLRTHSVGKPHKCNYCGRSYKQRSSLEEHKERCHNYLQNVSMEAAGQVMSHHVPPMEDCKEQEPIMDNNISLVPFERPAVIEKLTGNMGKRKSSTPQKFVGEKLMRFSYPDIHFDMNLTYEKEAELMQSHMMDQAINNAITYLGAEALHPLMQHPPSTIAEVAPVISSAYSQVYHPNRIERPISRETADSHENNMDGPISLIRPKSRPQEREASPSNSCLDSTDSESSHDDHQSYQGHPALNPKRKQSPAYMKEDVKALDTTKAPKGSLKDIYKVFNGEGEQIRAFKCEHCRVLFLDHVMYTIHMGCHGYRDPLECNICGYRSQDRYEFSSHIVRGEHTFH
# T5 sequence (Q96SW2 whole entry): as the sequence (Q96SW2 whole entry) above
# T5 sequence (Q16531 whole entry partner): as the sequence (Q16531 whole entry partner) above
smiles,measurement,setting,value
"O=C1CCN(N2Cc3cc(CN4CCC(N5CCc6cc(F)ccc65)CC4)ccc3C2=O)C(=O)N1 [GT-05165, 1-(5-((4-(5-fluoroindolin-1-yl)piperidin-1-yl)methyl)-1-oxoisoindolin-2-yl)dihydropyrimidine-2,4(1H,3H)-dione]",GSPT1 substrate protein remaining %,GSPT1,"A (""A"" is defined as 0% ≤ substrate protein remaining % ≤ 80%)"
same,WEE1 substrate protein remaining %,WEE1,"B (""B"" is defined as 80%< substrate protein remaining %≤ 100%)"
same,IC50,MM.1S,500 to 1000 nM
same,IKZF3 substrate protein remaining %,IKZF3,"B (""B"" is defined as 80%< substrate protein remaining %≤ 100%)"
same,IKZF1 substrate protein remaining %,IKZF1,"B (""B"" is defined as 80%< substrate protein remaining %≤ 100%)"
same,IKZF2 substrate protein remaining %,IKZF2,"A (""A"" is defined as 0% ≤ substrate protein remaining % ≤ 80%)"
same,CK1α substrate protein remaining %,CK1α,"B (""B"" is defined as 80%< substrate protein remaining %≤ 100%)"
"CC1(C)CCC(CN2CC3CC(C2)N3Cc2ccc3c(c2)CN(N2CCC(=O)NC2=O)C3=O)=C(c2ccc(Cl)cc2)C1 [GT-06456, 1-(5-((3-((4'-chloro-5,5-dimethyl-3,4,5,6-tetrahydro-[1,1'-biphenyl]-2-yl)methyl)-3,6-diazabicyclo[3.1.1]heptan-6-yl)methyl)-1-oxoisoindolin-2-yl)dihydropyrimidine-2,4(1H,3H)-dione]",GSPT1 substrate protein remaining %,GSPT1,"A (""A"" is defined as 0% ≤ substrate protein remaining % ≤ 80%)"
same,WEE1 substrate protein remaining %,WEE1,"A (""A"" is defined as 0% ≤ substrate protein remaining % ≤ 80%)"
same,IC50,MM.1S,100 to 300 nM
same,IKZF3 substrate protein remaining %,IKZF3,"A (""A"" is defined as 0% ≤ substrate protein remaining % ≤ 80%)"
same,IKZF1 substrate protein remaining %,IKZF1,"A (""A"" is defined as 0% ≤ substrate protein remaining % ≤ 80%)"
same,IKZF2 substrate protein remaining %,IKZF2,"A (""A"" is defined as 0% ≤ substrate protein remaining % ≤ 80%)"
same,CK1α substrate protein remaining %,CK1α,"A (""A"" is defined as 0% ≤ substrate protein remaining % ≤ 80%)"
"Cn1cc(C2=CCN(Cc3ccc4c(c3)CN(N3CCC(=O)NC3=O)C4=O)CC2)c2ccc(F)cc21 [GT-05167, 1-(5-((4-(6-fluoro-1-methyl-1H-indol-3-yl)-3,6-dihydropyridin-1(2H)-yl)methyl)-1-oxoisoindolin-2-yl)dihydropyrimidine-2,4(1H,3H)-dione]",GSPT1 substrate protein remaining %,GSPT1,"A (""A"" is defined as 0% ≤ substrate protein remaining % ≤ 80%)"
same,WEE1 substrate protein remaining %,WEE1,"A (""A"" is defined as 0% ≤ substrate protein remaining % ≤ 80%)"
same,IC50,MM.1S,10 to 50 nM
same,IKZF3 substrate protein remaining %,IKZF3,"A (""A"" is defined as 0% ≤ substrate protein remaining % ≤ 80%)"
same,IKZF1 substrate protein remaining %,IKZF1,"A (""A"" is defined as 0% ≤ substrate protein remaining % ≤ 80%)"
same,IKZF2 substrate protein remaining %,IKZF2,"A (""A"" is defined as 0% ≤ substrate protein remaining % ≤ 80%)"
same,CK1α substrate protein remaining %,CK1α,"B (""B"" is defined as 80%< substrate protein remaining %≤ 100%)"
"Cc1ccc(C2CCN(Cc3ccc4c(c3)CN(N3CCC(=O)NC3=O)C4=O)CC2)s1 [GT-07425, 1-(5-((4-(5-methylthiophen-2-yl)piperidin-1-yl)methyl)-1-oxoisoindolin-2-yl)dihydropyrimidine-2,4(1H,3H)-dione]",substrate protein remaining % GSPT1,GSPT1; [1],A (0% ≤ substrate protein remaining % ≤ 80%)
same,substrate protein remaining % WEE1,WEE1; [1],B (80%< substrate protein remaining %≤ 100%)
same,IC50,MM.1S,500 to 1000 nM
same,substrate protein remaining % IKZF3,IKZF3; [1],B (80%< substrate protein remaining %≤ 100%)
same,substrate protein remaining % IKZF1,IKZF1; [1],B (80%< substrate protein remaining %≤ 100%)
same,substrate protein remaining % IKZF2,IKZF2; [1],B (80%< substrate protein remaining %≤ 100%)
same,substrate protein remaining % CK1α,CK1α; [1],B (80%< substrate protein remaining %≤ 100%)
"O=C1CCN(N2Cc3cc(CN4CC(=C5CCOc6cc(F)ccc65)C4)ccc3C2=O)C(=O)N1 [GT-05168, 1-(5-((3-(7-fluorochroman-4-ylidene)azetidin-1-yl)methyl)-1-oxoisoindolin-2-yl)dihydropyrimidine-2,4(1H,3H)-dione]",GSPT1 substrate protein remaining %,GSPT1,"A (""A"" is defined as 0% ≤ substrate protein remaining % ≤ 80%)"
same,WEE1 substrate protein remaining %,WEE1,"B (""B"" is defined as 80%< substrate protein remaining %≤ 100%)"
same,IC50,MM.1S,100 to 300 nM
same,IKZF3 substrate protein remaining %,IKZF3,"A (""A"" is defined as 0% ≤ substrate protein remaining % ≤ 80%)"
same,IKZF1 substrate protein remaining %,IKZF1,"B (""B"" is defined as 80%< substrate protein remaining %≤ 100%)"
same,IKZF2 substrate protein remaining %,IKZF2,"B (""B"" is defined as 80%< substrate protein remaining %≤ 100%)"
same,CK1α substrate protein remaining %,CK1α,"B (""B"" is defined as 80%< substrate protein remaining %≤ 100%)"
"O=C1CCN(N2Cc3cc(CN4CC=C(c5cncc(Cl)c5Cl)CC4)ccc3C2=O)C(=O)N1 [GT-06393, 1-(5-((4,5-dichloro-3',6'-dihydro-[3,4'-bipyridin]-1'(2'H)-yl)methyl)-1-oxoisoindolin-2-yl)dihydropyrimidine-2,4(1H,3H)-dione]",GSPT1 substrate protein remaining %,GSPT1,"A (""A"" is defined as 0% ≤ substrate protein remaining % ≤ 80%)"
same,WEE1 substrate protein remaining %,WEE1,"A (""A"" is defined as 0% ≤ substrate protein remaining % ≤ 80%)"
same,IC50,MM.1S,500 to 1000 nM
same,IKZF3 substrate protein remaining %,IKZF3,"A (""A"" is defined as 0% ≤ substrate protein remaining % ≤ 80%)"
same,IKZF1 substrate protein remaining %,IKZF1,"B (""B"" is defined as 80%< substrate protein remaining %≤ 100%)"
same,IKZF2 substrate protein remaining %,IKZF2,"A (""A"" is defined as 0% ≤ substrate protein remaining % ≤ 80%)"
same,CK1α substrate protein remaining %,CK1α,"A (""A"" is defined as 0% ≤ substrate protein remaining % ≤ 80%)"
"O=C1CCN(N2Cc3cc(CN4CCN(C(c5ccc(F)cc5)c5ccc(F)cc5)CC4)ccc3C2=O)C(=O)N1 [GT-04894, 1-(5-((4-(bis(4-fluorophenyl)methyl)piperazin-1-yl)methyl)-1-oxoisoindolin-2-yl)dihydropyrimidine-2,4(1H,3H)-dione]",GSPT1 substrate protein remaining %,GSPT1,"A (""A"" is defined as 0% ≤ substrate protein remaining % ≤ 80%)"
same,WEE1 substrate protein remaining %,WEE1,"A (""A"" is defined as 0% ≤ substrate protein remaining % ≤ 80%)"
same,IC50,MM.1S,500 to 1000 nM
same,IKZF3 substrate protein remaining %,IKZF3,"B (""B"" is defined as 80%< substrate protein remaining %≤ 100%)"
same,IKZF1 substrate protein remaining %,IKZF1,"A (""A"" is defined as 0% ≤ substrate protein remaining % ≤ 80%)"
same,IKZF2 substrate protein remaining %,IKZF2,"A (""A"" is defined as 0% ≤ substrate protein remaining % ≤ 80%)"
same,CK1α substrate protein remaining %,CK1α,"B (""B"" is defined as 80%< substrate protein remaining %≤ 100%)"
"O=C1CCN(N2Cc3cc(CN4CCN(c5ccc(Cl)cn5)CC4)ccc3C2=O)C(=O)N1 [GT-05127, 1-(5-((4-(5-chloropyridin-2-yl)piperazin-1-yl)methyl)-1-oxoisoindolin-2-yl)dihydropyrimidine-2,4(1H,3H)-dione]",GSPT1 substrate protein remaining %,GSPT1,"A (""A"" is defined as 0% ≤ substrate protein remaining % ≤ 80%)"
same,WEE1 substrate protein remaining %,WEE1,"A (""A"" is defined as 0% ≤ substrate protein remaining % ≤ 80%)"
same,IC50,MM.1S,500 to 1000 nM
same,IKZF3 substrate protein remaining %,IKZF3,"A (""A"" is defined as 0% ≤ substrate protein remaining % ≤ 80%)"
same,IKZF1 substrate protein remaining %,IKZF1,"A (""A"" is defined as 0% ≤ substrate protein remaining % ≤ 80%)"
same,IKZF2 substrate protein remaining %,IKZF2,"B (""B"" is defined as 80%< substrate protein remaining %≤ 100%)"
same,CK1α substrate protein remaining %,CK1α,"A (""A"" is defined as 0% ≤ substrate protein remaining % ≤ 80%)"
"O=C1CCN(N2Cc3cc(CN4CCN(c5cccc(Cl)n5)CC4)ccc3C2=O)C(=O)N1 [GT-05126, 1-(5-((4-(6-chloropyridin-2-yl)piperazin-1-yl)methyl)-1-oxoisoindolin-2-yl)dihydropyrimidine-2,4(1H,3H)-dione]",GSPT1 substrate protein remaining %,GSPT1,"A (""A"" is defined as 0% ≤ substrate protein remaining % ≤ 80%)"
same,WEE1 substrate protein remaining %,WEE1,"A (""A"" is defined as 0% ≤ substrate protein remaining % ≤ 80%)"
same,IC50,MM.1S,300 to 500 nM
same,IKZF3 substrate protein remaining %,IKZF3,"A (""A"" is defined as 0% ≤ substrate protein remaining % ≤ 80%)"
same,IKZF1 substrate protein remaining %,IKZF1,"A (""A"" is defined as 0% ≤ substrate protein remaining % ≤ 80%)"
same,IKZF2 substrate protein remaining %,IKZF2,"A (""A"" is defined as 0% ≤ substrate protein remaining % ≤ 80%)"
same,CK1α substrate protein remaining %,CK1α,"A (""A"" is defined as 0% ≤ substrate protein remaining % ≤ 80%)"
"O=C1CCN(N2Cc3cc(CN4CC=C(c5ccnc6cc(F)ccc56)CC4)ccc3C2=O)C(=O)N1 [GT-05166, 1-(5-((4-(7-fluoroquinolin-4-yl)-3,6-dihydropyridin-1(2H)-yl)methyl)-1-oxoisoindolin-2-yl)dihydropyrimidine-2,4(1H,3H)-dione]",GSPT1 substrate protein remaining %,GSPT1,"A (""A"" is defined as 0% ≤ substrate protein remaining % ≤ 80%)"
same,WEE1 substrate protein remaining %,WEE1,"A (""A"" is defined as 0% ≤ substrate protein remaining % ≤ 80%)"
same,IC50,MM.1S,100 to 300 nM
same,IKZF3 substrate protein remaining %,IKZF3,"A (""A"" is defined as 0% ≤ substrate protein remaining % ≤ 80%)"
same,IKZF1 substrate protein remaining %,IKZF1,"A (""A"" is defined as 0% ≤ substrate protein remaining % ≤ 80%)"
same,IKZF2 substrate protein remaining %,IKZF2,"A (""A"" is defined as 0% ≤ substrate protein remaining % ≤ 80%)"
same,CK1α substrate protein remaining %,CK1α,"B (""B"" is defined as 80%< substrate protein remaining %≤ 100%)"
"O=C1CCN(N2Cc3cc(CN4CCC(c5c[nH]c6cc(F)ccc56)CC4)ccc3C2=O)C(=O)N1 [GT-05164, 1-(5-((4-(6-fluoro-1H-indol-3-yl)piperidin-1-yl)methyl)-1-oxoisoindolin-2-yl)dihydropyrimidine-2,4(1H,3H)-dione]",GSPT1 substrate protein remaining %,GSPT1,"A (""A"" is defined as 0% ≤ substrate protein remaining % ≤ 80%)"
same,WEE1 substrate protein remaining %,WEE1,"B (""B"" is defined as 80%< substrate protein remaining %≤ 100%)"
same,IC50,MM.1S,100 to 300 nM
same,IKZF3 substrate protein remaining %,IKZF3,"B (""B"" is defined as 80%< substrate protein remaining %≤ 100%)"
same,IKZF1 substrate protein remaining %,IKZF1,"A (""A"" is defined as 0% ≤ substrate protein remaining % ≤ 80%)"
same,IKZF2 substrate protein remaining %,IKZF2,"A (""A"" is defined as 0% ≤ substrate protein remaining % ≤ 80%)"
same,CK1α substrate protein remaining %,CK1α,"B (""B"" is defined as 80%< substrate protein remaining %≤ 100%)"
